Patent publication US11091490B2, “3-amino-1,5-dihydro-pyrazolo[3,4-d]pyrimidin-4-ones as cyclin dependent kinase inhibitors” (Oncotyrol Center for Personalized Cancer Medicine GMBH, priority 2016, dated 2021)
In brackets after ≈: the same amount, converted by molar mass. Read-outs that look alike come from different tables or passages of the source.

Legend:
[1] = test system: HT1080 (connective tissue); experiment: In vitro proliferation screening (Sulforhodamin B) HT1080; format: cell-based, human; conditions: HT1080, 72 h
Text: (§1) In order to evaluate the antitumor activity of the compounds of the present invention, in particular compound 86, in solid tumors, an in vitro proliferation screening in a panel of 10 different human cancer cell lines derived from solid tumors (see Table 5, below) as a model system.
(§2) Six 10-fold dilutions of compound 86 have been prepared in DMSO, from 5×10^−9 M to 5×10^−4. Single data points have been tested for each concentration. The final concentration of DMSO was 0.1%. The duration of the treatment was 72 hours. The growth inhibition was measured by using Sulforhodamin B, a protein-staining assay in accordance with Vichai V et. al. Nat. Protoc. 2006; 1(3):1112-6. Activity of the agents was determined by evaluating the following parameters: IC50, GI50, IC10, GI10, TGI, LC50, IC90 and GI90 (if these values could be calculated).

SKNAS (brain) = experiment: In vitro proliferation screening (Sulforhodamin B) SKNAS; format: cell-based; conditions: Homo sapiens, SK-N-AS, 72 h, unit M
Text: as §1, §2

[2] = test system: HS-5 bone marrow stroma cells (control); experiment: Annexin V/PI staining HS-5; format: cell-based; conditions: HS-5 control cells, 0.1 μM, 12 h and 24 h
Text: (§3) In order to investigate the mode of action (MOA) related to the antitumor activity of the compounds of the present invention (in particular compound 86) in solid tumors and multiple myeloma, two experimental strategies were used to confirm the postulated MOA: 1) monitoring of apoptosis induction and 2) cell cycle analysis upon treatment with compound 86. Three cancer cell lines (LP-1, (multiple myeloma cells, DSMZ ACC 41), A375 (melanoma cells), and HeLa (cervix carcinoma cells)) as well as control cells (HS-5 bone marrow stroma cells, ATCC CRL-11882) were used to obtain mechanistic insight into the antitumor activity of compound 86.
(§4) Annexin V staining and Poly(ADP-ribose)-Polymerase 1 (PARP) protein cleavage was analyzed to identify a pro-apoptotic effect of compound 86 on tumor cells in accordance with the method of Koopman G, et. al. Blood 1994; 1; 84(5):1415-20. Annexin V allows the identification of cell surface changes that occur early during the apoptotic process by in situ detection, which is ideal for the analysis with adherent cells. Cleavage of PARP-1 by caspases is considered to be a hallmark of apoptosis and was therefore applied to monitor apoptosis induction after 24 h of treatment with 100 nM of compound 86.

U2OS (bone) = experiment: In vitro proliferation screening (Sulforhodamin B) U2OS; format: cell-based, human; conditions: 72 h
Text: as §1, §2

NCIH82 (lung) = experiment: In vitro proliferation screening (Sulforhodamin B) NCIH82; format: cell-based; conditions: Homo sapiens, NCI-H82; NCIH82, 72 h; unit M
Text: as §1, §2

CDK13 = molecular target: T1, CDK13 (Homo sapiens, UniProt Q14004); experiment: Target selectivity profile (DiscoverX KinomeScan) CDK13; format: binding
T1 construct: purchased DiscoverX
Text: 3. Target Selectivity Profile (DiscoverX KinomeScan)
According to an analysis of kinase inhibitory selectivity carried out in accordance with Karaman M W et al., Nat Biotechnol. 2008 January; 26(1):127-32. doi: 10.1038/nbt1358.

NCI-H929/GN2 = experiment: Multiple myeloma cells in mono- and co-culture with osteoblasts, imaging based detection (NCI-H929); format: cell-based
Description: Compound 86 has been compared with the key compound of WO 2000/21926 A2 (Example 121) in an imaging based detection system.
Two different multiple myeloma (MM) cell lines (RPMI-8226 (DSMZ, ACC 402), NCI-H929 DSMZ, ACC 163) have been used and were cultured in mono- and co-culture with osteoblasts (OB) (Osteoblasts were obtained by culturing hMSCs with a differentiation inducing medium for two weeks) in accordance with the method of Karadag A. et al. Journal of Bone and Mineral Research Vol. 15, No. 10, 2000 page 1935-43.

DU145 (prostate) = experiment: In vitro proliferation screening (Sulforhodamin B) DU145; format: cell-based; conditions: Homo sapiens, DU-145; DU145, 72 h; unit M
Text: as §1, §2

A375 melanoma cells = experiment: PARP cleavage Western blot A375; format: cell-based; conditions: A375, 24 h, 100 nM, FIG. 1B legend 0.08 μM
Text: as §3, §4

[3] = test system: HS-5 bone marrow stroma cells (control); experiment: Cell cycle analysis (propidium iodide FACS) HS-5; format: cell-based; conditions: HS-5 control cells, 100 nM, 12 and 24 h
Text: as §3
(§5) Measuring of DNA content in cells is a well-established method for monitoring cell proliferation, cell cycle, fragmentation of nuclei (apoptosis) and DNA ploidy. Proliferating cells progress through various phases of the cell cycle (G0, G1, S, G2, and M phase). At different stages of the cell cycle and life cycle, cell nuclei contain different amounts of DNA. The DNA content in cell nuclei was analyzed by propidium iodide (PI) staining and FACS analysis after 12 and 24 h of treatment with 100 nM of compound 86 in accordance with the method of Desai Brijal M. et. al. PLOS Vol. 8; Issue 3; p. 1-11, 2013.

most CYP enzymes = experiment: Drug-drug interactions: CYP inhibition; format: in vitro ADME
Text: In assays carried out in accordance with the “Guideline on the investigation of drug interactions”, CPMP/EWP/560/95/Rev. 1 Corr. 2, European Medicines Agency, Committee for Human Medicinal Products (CHMP) and “Guidance for Industry, Drug Interaction Studies—Study Design, Data Analysis, Implications for Dosing, and Labeling Recommendations”, U.S. Department of Health and Human Services.

[4] = test system: LP-1 multiple myeloma cells; experiment: Cell cycle analysis (propidium iodide FACS) LP1; format: cell-based
Text: as §3, §5

Solubility in water = format: physicochemical
Text: The water solubility of preferred compound 86 and the compound of Example 49 of WO 02/967654 A2 have been compared.

[5] = test system: HeLa cervix carcinoma cells; experiment: Cell cycle analysis (propidium iodide FACS) HeLa; format: cell-based
Text: as §3, §5

T1 sequence (Q14004 whole entry): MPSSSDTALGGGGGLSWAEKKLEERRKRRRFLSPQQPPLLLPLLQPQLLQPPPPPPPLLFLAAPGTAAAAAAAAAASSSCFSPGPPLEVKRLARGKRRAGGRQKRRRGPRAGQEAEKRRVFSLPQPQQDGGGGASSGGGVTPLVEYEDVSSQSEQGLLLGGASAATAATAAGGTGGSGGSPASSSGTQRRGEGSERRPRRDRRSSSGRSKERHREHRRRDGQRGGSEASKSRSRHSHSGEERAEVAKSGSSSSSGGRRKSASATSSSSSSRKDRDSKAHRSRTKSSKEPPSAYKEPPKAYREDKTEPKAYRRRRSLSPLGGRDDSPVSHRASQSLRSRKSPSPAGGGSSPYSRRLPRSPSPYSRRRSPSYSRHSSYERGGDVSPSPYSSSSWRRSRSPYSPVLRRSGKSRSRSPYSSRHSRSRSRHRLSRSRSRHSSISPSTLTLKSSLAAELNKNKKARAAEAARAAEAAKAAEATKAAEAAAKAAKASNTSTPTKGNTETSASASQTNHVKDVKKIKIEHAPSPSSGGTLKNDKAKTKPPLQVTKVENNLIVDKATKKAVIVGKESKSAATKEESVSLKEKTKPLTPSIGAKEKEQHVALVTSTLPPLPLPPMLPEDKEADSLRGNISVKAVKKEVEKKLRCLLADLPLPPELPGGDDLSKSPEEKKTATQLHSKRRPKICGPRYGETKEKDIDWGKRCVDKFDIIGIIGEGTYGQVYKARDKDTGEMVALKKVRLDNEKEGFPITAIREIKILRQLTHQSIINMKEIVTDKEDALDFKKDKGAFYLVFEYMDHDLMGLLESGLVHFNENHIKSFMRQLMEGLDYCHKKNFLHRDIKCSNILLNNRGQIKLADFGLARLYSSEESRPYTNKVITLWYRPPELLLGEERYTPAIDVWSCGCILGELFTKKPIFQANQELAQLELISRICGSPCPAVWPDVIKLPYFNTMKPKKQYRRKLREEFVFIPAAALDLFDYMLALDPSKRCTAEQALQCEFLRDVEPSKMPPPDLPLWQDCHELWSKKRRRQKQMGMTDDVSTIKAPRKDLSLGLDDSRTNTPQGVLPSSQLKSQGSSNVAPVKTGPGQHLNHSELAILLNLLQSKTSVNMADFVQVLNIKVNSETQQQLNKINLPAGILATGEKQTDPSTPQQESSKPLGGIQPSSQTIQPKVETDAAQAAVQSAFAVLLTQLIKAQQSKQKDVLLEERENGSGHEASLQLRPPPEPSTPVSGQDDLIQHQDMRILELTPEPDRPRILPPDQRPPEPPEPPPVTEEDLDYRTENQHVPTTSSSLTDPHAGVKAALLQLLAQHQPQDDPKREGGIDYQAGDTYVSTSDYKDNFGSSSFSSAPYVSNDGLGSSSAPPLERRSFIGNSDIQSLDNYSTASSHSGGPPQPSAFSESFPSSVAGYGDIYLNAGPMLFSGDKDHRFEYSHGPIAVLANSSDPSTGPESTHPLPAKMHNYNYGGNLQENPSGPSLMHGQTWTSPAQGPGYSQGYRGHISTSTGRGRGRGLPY

**Q.** Which “growth inhibitory response in words” value [1] does the source give for `CCN(CC)CC(=O)Nc1ccc(Cc2nc3c(c(N(C)C)nn3-c3c(Cl)cc(S(N)(=O)=O)cc3Cl)c(=O)[nH]2)cc1` [Compound 86, N-{4-[1-(2,6-Dichloro-4-sulfamoyl-phenyl)-3-dimethylamino-4-oxo-4,5-dihydro-1H-pyrazolo[3,4-d]pyrimidin-6-ylmethyl]-phenyl}-2-diethylamino-acetamide] here?
**A.** growth inhibition in the middle nanomolar range

**Q.** What about the GI50 ([1]; Homo sapiens, HT-1080, unit M) of the same molecule?
**A.** 36.4 nM

**Q.** And the IC50 ([1]; Homo sapiens, HT-1080, unit M)?
**A.** 38 nM

**Q.** What about the GI50 (SKNAS (brain)) of the same molecule?
**A.** 41.2 nM

**Q.** What about the IC50 (SKNAS (brain)) of the same molecule?
**A.** 74.3 nM

**Q.** And the “induction of apoptosis (Annexin V/PI staining)” value [2]?
**A.** did not respond

**Q.** What about the “growth inhibitory response in words” value (U2OS (bone)) of the same molecule?
**A.** responded rather weakly in the micromolar range

**Q.** And the GI50 (U2OS (bone); Homo sapiens, unit M)?
**A.** 94.2 nM

**Q.** What about the IC50 (U2OS (bone); Homo sapiens, unit M) of the same molecule?
**A.** 103 nM

**Q.** What about the GI50 (NCIH82 (lung)) of the same molecule?
**A.** 16.5 nM

**Q.** What about the IC50 (NCIH82 (lung)) of the same molecule?
**A.** 21.3 nM

**Q.** And the “kinase inhibitory selectivity: CDK13” value (CDK13)?
**A.** active as inhibitors

**Q.** What about the EC50 (NCI-H929/GN2; Homo sapiens, NCI-H929, NCI-H929/GN2, co-culture with osteoblasts, read-out: co-culture (+ OB) EC50) of the same molecule?
**A.** 72 nM

**Q.** And the EC50 (NCI-H929/GN2; Homo sapiens, NCI-H929, NCI-H929/GN2, mono-culture, read-out: mono-culture EC50)?
**A.** 62 nM

**Q.** And the EC50 (NCI-H929/GN2; NCI-H929/GN2, co-culture with osteoblasts, read-out: co-culture (+ OB) EC50)?
**A.** 68 nM

**Q.** And the EC50 (NCI-H929/GN2; NCI-H929/GN2, mono-culture, read-out: mono-culture EC50)?
**A.** 55 nM

**Q.** What about the GI50 (DU145 (prostate)) of the same molecule?
**A.** 32.4 nM

**Q.** And the IC50 (DU145 (prostate))?
**A.** 37.3 nM

**Q.** And the PARP cleavage (A375 melanoma cells)?
**A.** specific induction of PARP cleavage

**Q.** And the PARP cleavage (A375 melanoma cells; listed as Otviciclib)?
**A.** induction of PARP cleavage

**Q.** What about the “cell cycle profile (DNA content)” value [3] of the same molecule?
**A.** remained unchanged

**Q.** What about the “inhibitory activity of most CYP enzymes” value (most CYP enzymes) of the same molecule?
**A.** only weak inhibitory activity

**Q.** What about the “cell cycle profile (DNA content)” value ([4]; LP1, 0.1 μM, 12 and 24 h (FIG. 1A)) of the same molecule?
**A.** cell cycle defects and a progressive enrichment of the sub G1 group

**Q.** What about the “cell cycle profile (DNA content)” value ([4]; LP1, 100 nM, 12 h) of the same molecule?
**A.** strong enrichment of nuclei in the sub_G1 fraction

**Q.** And the “cell cycle profile (DNA content)” value ([4]; LP1, 100 nM, 24 h)?
**A.** almost all intact nuclei of LP1 cells disappeared

**Q.** What about the solubility (Solubility in water; aqueous buffer, pH 2.0, read-out: Solubility in water at pH 2.0) of the same molecule?
**A.** 129 µM (≈ 80.2 µg/mL)

**Q.** And the solubility (Solubility in water; pH 7.4, aqueous buffer, read-out: Solubility in water at pH 7.4)?
**A.** 105 µM (≈ 65.3 µg/mL)

**Q.** And the “cell cycle profile (DNA content)” value ([5]; 0.1 μM, 12 and 24 h (FIG. 1A))?
**A.** cell cycle defects and a progressive enrichment of the sub G1 group

**Q.** What about the “cell cycle profile (DNA content)” value ([5]; 100 nM, 12 h) of the same molecule?
**A.** unaffected

**Q.** What about the “cell cycle profile (DNA content)” value ([5]; 100 nM, 24 h) of the same molecule?
**A.** clear response
